{
  "source": "patent US20240182460A1",
  "about": "“ALLOSTERIC CHROMENONE INHIBITORS OF PHOSPHOINOSITIDE 3-KINASE (PI3K) FOR THE TREATMENT OF DISEASE” (PETRA PHARMA CORPORATION, priority 2022, published 2024)",
  "data": [
    {"assay": "Metabolic stability and intrinsic clearance in human liver microsomes (MICS)", "type": "in vitro ADME", "conditions": "human, microsomes, pH 7.4", "procedure": "(§1) Metabolic Stability and Intrinsic Clearance in Liver Microsomes (MICS)\n(§2) One objective of this assay is to measure in vitro metabolic stability of a test compound in liver microsomes of one or more different species. The concentration of a control compound in the reaction system is evaluated by LC/MS/MS for calculating intrinsic clearance of a test compound and estimating the stability of the control compound and test compound in liver microsomes of one or more different species.\n(§3) Microsomes (MICS). Human Liver Microsomes (HLM), Monkey Liver Microsomes (MKLM), Dog Liver Microsomes (DLM), Rat Liver Microsomes (RLM), and Mouse Liver Microsomes (MLM) are obtained at a concentration of 20 mg/mL protein from commercial sources and stored in a −80° C. freezer. Prior to use, liver microsomes are removed from the freezer and allowed to thaw in a 37° C. water bath and then stored on wet ice.\n(§4) Stock Solutions. Test Compound (TC) Stock Solutions are prepared in DMSO at a concentration of 10 mM and stored for later use. Positive Control (PC) Stock Solutions of verapamil·HCL (FW: 491.1 g/mol) in DMSO are prepared at a concentration of 10 mM (4.91 mg/mL), and stored at the condition same as the stock solutions of test compounds.\n(§5) Phosphate Buffer. Phosphate Buffer (100 mM, pH 7.4) is prepared by combining a Solution A and a Solution B as follows.\n(§6) To prepare Solution A, 7.098 g of disodium hydrogen phosphate was combined with 500 mL of pure water and sonicated to dissolve. To prepare the Solution B, 3.400 g of potassium dihydrogen phosphate was combined with 250 mL of pure water and sonicated to dissolve. Solution A was placed on a stirrer and Solution B was slowly added into Solution A until the pH reached 7.4.\n(§7) NADPH Solution. A 10 mM NADPH Solution is prepared by dissolving NADPH (MW: 833.4 g/mol) at 8.334 mg/mL in phosphate buffer (100 mM, pH 7.4).\n(§8) Microsome Master Solution. A Microsome Master Solution is prepared by adding 6.25 μL microsomes (20 mg/mL) to 216.25 μL Phosphate Buffer (100 mM). The final concentration is Phosphate Buffer (100 mM); microsomes (0.5 mg/mL).\n(§9) Dilution of Stock Solutions. The TC Stock Solutions (10 mM in DMSO) and the PC Stock Solutions (10 mM in DMSO) are diluted by adding 3 μL of the TC Stock Solution or the PC Stock Solution to 297 μL of 50% acetonitrile/50% water.\n(§10) Incubation. Two separated experiments were performed as follows. a) With Cofactors (NADPH): 25 μL of 10 mM NADPH was added to the incubations. The final concentrations of\n(§11) microsomes and NADPH were 0.5 mg/mL and 1 mM, respectively. b) Without Cofactors (NADPH): 25 μL of 100 mM Phosphate buffer was added to the incubations. The final concentration of microsomes was 0.5 mg/mL. The mixture was pre-warmed at 37° C. for 10 minutes.\n(§12) The reaction was started with the addition of 2.5 μL of 100 μM PC solution or TC solutions.\n(§13) Verapamil was used as PC in this study. The final concentration of test compound or control compound was 1 μM. The incubation solution was incubated in water batch at 37° C.\n(§14) Reaction Termination. Aliquots of 30 μL were taken from the reaction solution at 0.5, 5, 15, 30 and 60 minutes and added to plates. The reaction was stopped by the addition of 5 volumes of cold acetonitrile and a solution containing 100 nM alprazolam, 200 nM caffeine and 100 nM tolbutamide.\n(§15) Sampling. The plates containing the terminated reactions were centrifuged at 4000 rpm for 30 minutes. Supernatant of each compound (40 μL) was transferred into a 96-well analysis plate.\n(§16) Four compound samples are pooled together into one cassette and diluted by adding 160 μL of pure water. All incubations are performed in duplicate.\n(§17) Analysis and Data Processing. Quantitative LC-MS analysis is performed, and peak areas are determined from extracted ion chromatograms. Percent parent remaining was calculated from peak area of TC or PC. The slope value, k, is determined by linear regression of the natural logarithm of percent parent remaining vs. incubation time curve. […]", "units": {"microsomal CLint at 1 μM": "µL/min/mg"}, "values": [
      {"compound": "Cc1cc([C@@H](C)Oc2ccc(Cl)nc2C(N)=O)c2oc(-c3cnc4nn(C)cc4c3)c(C)c(=O)c2c1", "note": "[Example 137A, 6-Chloro-3-[(1R)-1-[3,6-dimethyl-2-(2-methylpyrazolo[3,4-b]pyridin-5-yl)-4-oxo-chromen-8-yl]ethoxy]pyridine-2-carboxamide]", "microsomal CLint at 1 μM": "< 50"},
      {"compound": "Cc1cc([C@@H](C)Oc2ccc(Cl)nc2C(N)=O)c2oc(-c3cnccn3)c(C)c(=O)c2c1", "note": "[Example 78C, 6-Chloro-3-[(1R)-1-(3,6-dimethyl-4-oxo-2-pyrazin-2-yl-chromen-8-yl)ethoxy]pyridine-2-carboxamide]", "microsomal CLint at 1 μM": "< 50"},
      {"compound": "Cc1cc([C@@H](C)Oc2ccc(Cl)nc2C(N)=O)c2oc(-c3ccc4[nH]c(=O)ccc4c3)c(C)c(=O)c2c1", "note": "[Example 105A, 6-Chloro-3-[(1R)-1-[3,6-dimethyl-4-oxo-2-(2-oxo-1H-quinolin-6-yl)chromen-8-yl]ethoxy]pyridine-2-carboxamide]", "microsomal CLint at 1 μM": "< 50"},
      {"compound": "Cc1cc([C@@H](C)Oc2ccc(Cl)nc2S(N)(=O)=O)c2oc(-c3ccc4nn(C)cc4n3)c(C)c(=O)c2c1", "note": "[Example 5B, 6-Chloro-3-[(1R)-1-[3,6-dimethyl-2-(2-methylpyrazolo[4,3-b]pyridin-5-yl)-4-oxo-chromen-8-yl]ethoxy]pyridine-2-sulfonamide]", "microsomal CLint at 1 μM": "< 50"},
      {"compound": "Cc1cc([C@@H](C)Oc2ccc(Cl)nc2C(=O)NOC(C)(C)C)c2oc(-c3ccc4nn(C)cc4c3)c(C)c(=O)c2c1", "note": "[Example 27A, N-tert-Butoxy-6-chloro-3-[(1R)-1-[3,6-dimethyl-2-(2-methylindazol-5-yl)-4-oxo-chromen-8-yl]ethoxy]pyridine-2-carboxamide]", "microsomal CLint at 1 μM": "< 50"},
      {"compound": "Cc1cc([C@@H](C)Oc2ccc(Cl)nc2C(N)=O)c2oc(-c3cnn4cccnc34)c(C)c(=O)c2c1", "note": "[Example 16B, 6-Chloro-3-[(1R)-1-(3,6-dimethyl-4-oxo-2-pyrazolo[1,5-a]pyrimidin-3-yl-chromen-8-yl)ethoxy]pyridine-2-carboxamide]", "microsomal CLint at 1 μM": "< 50"},
      {"compound": "Cc1cc([C@@H](C)Oc2ccc(Cl)nc2S(N)(=O)=O)c2oc(-c3cnn(C)c3C#N)c(C)c(=O)c2c1", "note": "[Example 21C, 6-Chloro-3-[(1R)-1-[2-(5-cyano-1-methyl-pyrazol-4-yl)-3,6-dimethyl-4-oxo-chromen-8-yl]ethoxy]pyridine-2-sulfonamide]", "microsomal CLint at 1 μM": "< 50"},
      {"compound": "Cc1cc([C@@H](C)Oc2ccc(Cl)nc2S(N)(=O)=O)c2oc(-c3cnn(C)c3)c(Cl)c(=O)c2c1", "note": "(single isomer, unassigned) [Example 111C]", "microsomal CLint at 1 μM": "< 50"},
      {"compound": "Cc1cc([C@@H](C)Oc2ccc(Cl)nc2C(N)=O)c2oc(-c3cc(C#N)c4nn(C)cc4c3)c(C)c(=O)c2c1", "note": "[Example 52C, 6-Chloro-3-[(1R)-1-[2-(7-cyano-2-methyl-indazol-5-yl)-3,6-dimethyl-4-oxo-chromen-8-yl]ethoxy]pyridine-2-carboxamide]", "microsomal CLint at 1 μM": "< 50"},
      {"compound": "Cc1cc([C@@H](C)Oc2ccc(C#N)cc2C(N)=O)c2oc(-c3ccc4nn(C)cc4c3)c(C)c(=O)c2c1", "note": "[Example 108C, 5-Cyano-2-[(1R)-1-[3,6-dimethyl-2-(2-methylindazol-5-yl)-4-oxo-chromen-8-yl]ethoxy]benzamide]", "microsomal CLint at 1 μM": "< 50"},
      {"compound": "Cc1cc([C@@H](C)Oc2ccc(Cl)nc2C(N)=O)c2oc(-c3cncnc3)c(C)c(=O)c2c1", "note": "[Example 67A, 6-Chloro-3-[(1R)-1-(3,6-dimethyl-4-oxo-2-pyrimidin-5-yl-chromen-8-yl)ethoxy]pyridine-2-carboxamide]", "microsomal CLint at 1 μM": "< 50"},
      {"compound": "Cc1cc([C@@H](C)Oc2ccc(Cl)nc2S(N)(=O)=O)c2oc(-c3cnc(C)o3)c(C)c(=O)c2c1", "note": "[Example 10C, 6-Chloro-3-[(1R)-1-[3,6-dimethyl-2-(2-methyloxazol-5-yl)-4-oxo-chromen-8-yl]ethoxy]pyridine-2-sulfonamide]", "microsomal CLint at 1 μM": "< 50"},
      {"compound": "Cc1cc([C@@H](C)Oc2ccccc2S(N)(=O)=O)c2oc(-c3cnn(C)c3)c(C)c(=O)c2c1", "note": "[Example 103C, 2-[(1R)-1-[3,6-Dimethyl-2-(1-methylpyrazol-4-yl)-4-oxo-chromen-8-yl]ethoxy]benzenesulfonamide]", "microsomal CLint at 1 μM": "< 50"},
      {"compound": "Cc1cc([C@@H](C)Oc2ccc(F)nc2S(N)(=O)=O)c2oc(-c3cnc4ccoc4c3)c(C)c(=O)c2c1", "note": "[Example 73C, 6-Fluoro-3-[(1R)-1-(2-furo[3,2-b]pyridin-6-yl-3,6-dimethyl-4-oxo-chromen-8-yl)ethoxy]pyridine-2-sulfonamide]", "microsomal CLint at 1 μM": "< 50"},
      {"compound": "Cc1cc([C@@H](C)Oc2ccc(Cl)nc2S(N)(=O)=O)c2oc(-c3cnn(CC4(O)CC4)c3)c(C)c(=O)c2c1", "note": "[Example 128C, 6-Chloro-3-[(1R)-1-[2-[1-[(1-hydroxycyclopropyl)methyl]pyrazol-4-yl]-3,6-dimethyl-4-oxo-chromen-8-yl]ethoxy]pyridine-2-sulfonamide]", "microsomal CLint at 1 μM": "< 50"},
      {"compound": "Cc1cc([C@@H](C)Oc2ccc(F)nc2C(N)=O)c2oc(-c3ccc4nn(C)cc4c3)cc(=O)c2c1", "note": "[Example 19B, 6-Fluoro-3-[(1R)-1-[6-methyl-2-(2-methylindazol-5-yl)-4-oxo-chromen-8-yl]ethoxy]pyridine-2-carboxamide]", "microsomal CLint at 1 μM": "< 50"},
      {"compound": "Cc1cc([C@@H](C)Oc2ccc(F)c(F)c2C(N)=O)c2oc(-c3cnn(C)c3)c(C)c(=O)c2c1", "note": "[Example 31A, 6-[(1R)-1-[3,6-Dimethyl-2-(1-methylpyrazol-4-yl)-4-oxo-chromen-8-yl]ethoxy]-2,3-difluoro-benzamide]", "microsomal CLint at 1 μM": "< 50"},
      {"compound": "Cc1cc([C@@H](C)Oc2ccc(Cl)nc2C(N)=O)c2oc(-c3ccc4c(c3)C(C)(C)OC(=O)N4)c(C)c(=O)c2c1", "note": "[Example 47C, 6-Chloro-3-[(1R)-1-[2-(4,4-dimethyl-2-oxo-1H-3,1-benzoxazin-6-yl)-3,6-dimethyl-4-oxo-chromen-8-yl]ethoxy]pyridine-2-carboxamide]", "microsomal CLint at 1 μM": "< 50"},
      {"compound": "Cc1cc([C@@H](C)Oc2ccc(Cl)nc2C(N)=O)c2oc(-c3cnn4ncccc34)c(C)c(=O)c2c1", "note": "[Example 39C, 6-Chloro-3-[(1R)-1-(3,6-dimethyl-4-oxo-2-pyrazolo[1,5-b]pyridazin-3-yl-chromen-8-yl)ethoxy]pyridine-2-carboxamide]", "microsomal CLint at 1 μM": "< 50"},
      {"compound": "Cc1cc([C@@H](C)Oc2ccc(Cl)nc2S(N)(=O)=O)c2oc(-c3ccc(C#N)cc3)c(C)c(=O)c2c1", "note": "[Example 25C, 6-Chloro-3-[(1R)-1-[2-(4-cyanophenyl)-3,6-dimethyl-4-oxo-chromen-8-yl]ethoxy]pyridine-2-sulfonamide]", "microsomal CLint at 1 μM": "< 50"}
    ]},
    {"assay": "Metabolic stability and intrinsic clearance in human liver microsomes (MICS)", "type": "in vitro ADME", "conditions": "pH 7.4; human liver microsomes 0.5 mg/mL, 1 μM compound; read-out: intrinsic clearance in human MICS", "procedure": "as §1, §2, §3, §4, §5, §6, §7, §8, §9, §10, §11, §12, §13, §14, §15, §16, §17", "units": {"microsomal CLint at 1 μM": "µL/min/mg"}, "values": [
      {"compound": "Cc1cc([C@@H](C)Oc2ccc(Cl)nc2C(=O)NS(C)(=O)=O)c2oc(-c3ccccc3)c(C)c(=O)c2c1", "note": "[Example 6, 6-Chloro-3-[(1R)-1-(3,6-dimethyl-4-oxo-2-phenyl-chromen-8-yl)ethoxy]-N-methylsulfonyl-pyridine-2-carboxamide]", "microsomal CLint at 1 μM": "< 50"},
      {"compound": "Cc1cc([C@@H](C)Oc2ccccc2-c2noc(=O)[nH]2)c2oc(-c3ccccc3)c(C)c(=O)c2c1", "note": "[Example 4, 3-[2-[(1R)-1-(3,6-Dimethyl-4-oxo-2-phenyl-chromen-8-yl)ethoxy]phenyl]-4H-1,2,4-oxadiazol-5-one]", "microsomal CLint at 1 μM": "< 50"},
      {"compound": "Cc1cc([C@@H](C)Oc2cccc(F)c2-c2noc(=O)[nH]2)c2oc(-c3ccccc3)c(C)c(=O)c2c1", "note": "[Example 5, 3-[2-[(1R)-1-(3,6-Dimethyl-4-oxo-2-phenyl-chromen-8-yl)ethoxy]-6-fluoro-phenyl]-4H-1,2,4-oxadiazol-5-one]", "microsomal CLint at 1 μM": "< 50"}
    ]}
  ]
}
